Assay results: article PMC4020581 (Biochemistry, 2014)

Biological target: T1, FtsZ (Bacillus subtilis, UniProt P17865)
T1 sequence (P17865 1-382): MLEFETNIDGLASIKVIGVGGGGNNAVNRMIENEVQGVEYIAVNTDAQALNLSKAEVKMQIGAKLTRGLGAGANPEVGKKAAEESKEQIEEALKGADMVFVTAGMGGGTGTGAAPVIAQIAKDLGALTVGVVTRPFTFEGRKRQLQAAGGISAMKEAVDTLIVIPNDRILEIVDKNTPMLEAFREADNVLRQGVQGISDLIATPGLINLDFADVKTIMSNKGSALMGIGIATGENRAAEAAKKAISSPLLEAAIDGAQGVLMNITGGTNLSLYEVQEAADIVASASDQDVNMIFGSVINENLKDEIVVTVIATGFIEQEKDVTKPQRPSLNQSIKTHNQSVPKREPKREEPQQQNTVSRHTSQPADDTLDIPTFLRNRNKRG
Assay: malachite green/ammonium molybdate GTPase assay
Type: biochemical

Nc1nc2c(ncn2[C@@H]2O[C@H](COP(=O)(O)OP(=O)(O)OP(=O)(O)O)[C@@H](O)[C@H]2O)c(=O)[nH]1 [GTP]
malachite green/ammonium molybdate GTPase assay (1 mM GTP): 1.5 ± 0.6 min^–1
